From patent publication US8865701B2, “Spiropyrrolidine beta-secretase inhibitors for the treatment of alzheimer'S disease” (Merck Sharp & Dohme Corp., priority 2009, dated 2014)

Target: BACE 1 (Homo sapiens (Human), UniProt P56817)
Experiment: ECL assay of beta-secretase (BACE) enzyme inhibition
Assay type: biochemical
Settings: homogeneous end point ECL assay, biotinylated BACE substrate, soluble human enzyme, pH 6.5, rt
Experimental: Enzyme inhibition is determined as follows.
ECL Assay: A homogeneous end point electrochemiluminescence (ECL) assay is performed using a biotinylated BACE substrate. The Km of the substrate is approximated at 50 μM. A typical reaction contains approximately 0.6 nM enzyme, 0.25 μM of the substrate, and buffer (50 mM Pipes, pH 6.5, 0.1 mg/ml BSA, 0.2% CHAPS, 15 mM EDTA and 1 mM deferoxamine) in a total reaction volume of 100 μl. The reaction proceeds for 1-2 hrs and is then stopped by the addition of 150 μL of a quench cocktail solution (25 μl M Tris-HCl, pH 8.0, 50 μl INC buffer (2% BSA, 0.2% Tween-20 and 0.05% sodium azide diluted in Phosphate buffered saline (PBS) plus 75 μL PBS), containing Streptavidin coated magnetic beads and ruthenylated antibody which specifically recognizes the C-terminal residue of the product. The samples are subjected to M-384 (Igen Inc., Gaithersburg, Md.) analysis. Under these conditions, less than 10% of substrate is processed by BACE 1. The enzyme used in these studies is soluble (transmembrane domain and cytoplasmic extension excluded) human protein produced in a baculovirus expression system. To measure the inhibitory potency for compounds, 10 concentrations of inhibitors are prepared starting from 200 μM with three fold series dilution. Solutions of the inhibitor in DMSO are included in the reaction mixture (final DMSO concentration is 10%). All experiments are conducted at rt using the standard reaction conditions described above. To determine the IC50 of the compound, a four parameter equation is used for curve fitting. The errors in reproducing the dissociation constants are typically less than two-fold.

Chain of BACE 1 (P56817 46-457): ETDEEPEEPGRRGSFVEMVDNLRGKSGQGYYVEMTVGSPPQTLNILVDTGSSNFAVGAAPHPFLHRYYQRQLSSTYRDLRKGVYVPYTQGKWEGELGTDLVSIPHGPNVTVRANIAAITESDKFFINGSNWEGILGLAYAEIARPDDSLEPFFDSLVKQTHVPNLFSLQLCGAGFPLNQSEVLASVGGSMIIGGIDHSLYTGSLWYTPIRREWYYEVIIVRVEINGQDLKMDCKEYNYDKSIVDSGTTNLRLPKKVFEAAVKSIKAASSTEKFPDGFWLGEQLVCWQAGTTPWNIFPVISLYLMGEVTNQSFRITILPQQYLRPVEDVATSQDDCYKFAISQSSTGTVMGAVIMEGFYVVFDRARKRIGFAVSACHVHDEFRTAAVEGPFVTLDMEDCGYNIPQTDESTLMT

SMILES	IC50 [nM]
Cc1cccc(C2CC(c3ccccc3)CCN2C(=O)[C@@H]2CNC[C@]23CCCc2nc(Cl)ccc23)c1 (stereo partly drawn) [Example 100, [(3R,4S)-2′-chloro-7′,8′-dihydro-6′H-spiro[pyrrolidine-3,5′-quinolin]-4-yl][2-(3-methylphenyl)-4-phenylpiperidin-1-yl]methanone]	450
O=C([C@@H]1CNC[C@]12CCCc1nc(Cl)ccc12)N1CCC2(C=Cc3ccccc32)CC1c1ccccc1 (stereo partly drawn) [Example 77, [(3R,4S)-2′-chloro-7′,8′-dihydro-6′H-spiro[pyrrolidine-3,5′-quinolin]-4-yl](2′-phenyl-1′H-spiro[indene-1,4′-piperidin]-1′-yl)methanone]	200
O=C([C@@H]1CNC[C@]12CCSc1ccccc12)N1CCC(c2ccccc2)CC1 [Example 38, (3R,4S)-2′,3′-dihydrospiro[pyrrolidine-3,4′-thiochromen]-4-yl(4-phenylpiperidin-1-yl)methanone]	12000
O=C([C@@H]1CNC[C@]12CCc1cc(Br)ccc12)N1CCC(c2ccccc2)CC1 [Example 30, [(1R,4′S)-5-bromo-2,3-dihydrospiro[indene-1,3′-pyrrolidin]-4′-yl](4-phenylpiperidin-1-yl)methanone]	14000
O=C([C@@H]1CNC[C@]12CCCc1cc(Cl)ccc12)N1CCC(c2ccccc2)CC1 [Example 19, [(1R,4′S)-6-chloro-3,4-dihydro-2H-spiro[naphthalene-1,3′-pyrrolidin]-4′-yl](4-phenylpiperidin-1-yl)methanone]	920

Continued by falling IC50, values first:

IC50 [nM]	SMILES
22000	CC(C)[C@@H]1C[C@H](c2ccccc2)CCN1C(=O)[C@@H]1CNC[C@]12CCCc1ccccc12 [Example 7, (1R,4′S)-3,4-dihydro-2H-spiro[naphthalene-1,3′-pyrrolidin]-4′-yl[(2S,4R)-4-phenyl-2-(propan-2-yl)piperidin-1-yl]methanone]
20000	COC(C)(C)C1CCCCN1C(=O)[C@@H]1CNC[C@@]12CCCc1ccccc12 (stereo partly drawn) [Example 10, (1S,4′S)-3,4-dihydro-2H-spiro[naphthalene-1,3′-pyrrolidin]-4′-yl[2-(2-methoxypropan-2-yl)piperidin-1-yl]methanone]
19000	CCc1ccc2c(c1)CCC[C@]21CNC[C@H]1C(=O)N1CCC(c2ccccc2)CC1 [Example 44, [(1R,4′S)-6-ethyl-3,4-dihydro-2H-spiro[naphthalene-1,3′-pyrrolidin]-4′-yl](4-phenylpiperidin-1-yl)methanone]
2190	COc1cccc2c1OCC[C@]21CNC[C@H]1C(=O)N1CC[C@@H](c2ccccc2)C[C@H]1C1CCCC(F)(F)C1 (stereo partly drawn) [Example 3, [(4R,4′S)-8-methoxy-2,3-dihydrospiro[chromene-4,3′-pyrrolidin]-4′-yl][(2S,4R)-2-(3,3-difluorocyclohexyl)-4-phenylpiperidin-1-yl]methanone]
71	O=C([C@@H]1CNC[C@]12CCc1ccccc12)N1CC[C@@H](c2ccccc2)C[C@H]1c1ccccc1 [Example 21, (1R,4′S)-2,3-dihydrospiro[indene-1,3′-pyrrolidin]-4′-yl[(2S,4R)-2,4-diphenylpiperidin-1-yl]methanone]
24	CC(C)c1cccc2c1CCC[C@]21CNC[C@H]1C(=O)N1CCC(c2ccccc2)CC1 [Example 31, (4-phenylpiperidin-1-yl)[(1R,4′S)-5-(propan-2-yl)-3,4-dihydro-2H-spiro[naphthalene-1,3′-pyrrolidin]-4′-yl]methanone]
